# Reference: patent US20250206724A1, “SUBSTITUTED 3-AMINO INDAZOLE DERIVATIVES AS KINASE INHIBITORS” (NERVIANO MEDICAL SCIENCES S.R.L., priority 2022, published 2025)
# Where a name gives a salt, the structure may show the parent alone.
# Target: T1, CDK11A (Homo sapiens, UniProt Q9UQ88)
# T1 sequence (Q9UQ88 346-783): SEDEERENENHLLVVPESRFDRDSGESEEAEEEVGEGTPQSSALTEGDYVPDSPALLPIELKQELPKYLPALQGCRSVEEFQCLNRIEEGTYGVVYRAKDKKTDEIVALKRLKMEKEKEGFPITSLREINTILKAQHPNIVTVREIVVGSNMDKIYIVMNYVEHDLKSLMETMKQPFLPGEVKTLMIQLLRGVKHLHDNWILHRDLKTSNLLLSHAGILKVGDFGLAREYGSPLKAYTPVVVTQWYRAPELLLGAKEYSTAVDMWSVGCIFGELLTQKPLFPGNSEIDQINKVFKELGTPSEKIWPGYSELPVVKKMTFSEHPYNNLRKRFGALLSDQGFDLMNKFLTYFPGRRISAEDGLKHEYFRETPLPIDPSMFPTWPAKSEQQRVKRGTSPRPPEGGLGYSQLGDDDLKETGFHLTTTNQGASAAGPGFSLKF
# Details: displacement of SNS-032-Atto590 probe (0.002 μM) from CDK11A-p58 (0.032 uM), fluorescence polarization
# Experimental: Biochemical Kinase Inhibition Assay on CDK11 in Displacement Assay Format
# Displacement Assay Format
# Fluorescence Polarization (FP) experiments were carried out at room temperature using no-binding black 384-well microplates (Corning, NY), in 50 mM Tris HCl, pH 8, 10 mM MgCl2, 1 mM DTT, 1 mM CHAPS in a final volume of 60 μl. The plate reader was the Pherastar microplate reader (BMG). Polarization values were read using excitation and emission wavelengths of 590 and 675 nm, respectively. All FP values are expressed as mP units.
# Compounds were 4-folds serially diluted in 100% DMSO and added directly to the CDK11A-p58 solution using the pin tool (V & P Scientific): 0.2 ul of the different compound concentrations in 20 ul of enzyme solution. After an incubation of 30 minutes at r.t., 40 ul of probe solution were added. […] The Pherastar reading is performed after 15 minutes of all components incubation. For each assay, high controls (equivalent to 0% displacement) contain probe, CDK11A-p58, and 0.33% DMSO, whereas low controls (equivalent to 100% displacement) contain only probe and 0.33% DMSO. Controls are used for the Z′ and signal to background evaluation.
# The data per each molecule are analyzed by Prism SW or an internally customized version of the SW package “Assay Explorer” which provides sigmoidal fittings of the ten-dilution curves for DC50 determination using a 4 parameters logistic equation:
# where x is the logarithm of the inhibitor concentration, y is the response; y starts at bottom and goes to top with a sigmoid shape.
# 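Further: compound preincubated 30 min with CDK11A-p58, then probe added and polarization (mP) read 15 min later, 0% displacement is probe plus enzyme, 100% is probe alone.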
row,SMILES,DC50 [nM]
1,"CCC(=O)c1ccc(Cl)c(-c2ccc3[nH]nc(NC(=O)[C@@H]4CCCNC4)c3c2)c1 [cpd 43, (3R)-N-[5-(2-Chloro-5-propanoylphenyl)-1H-indazol-3-yl]piperidine-3-carboxamide hydrochloride]",19
2,"COc1ccc(Cl)c(-c2ccc3[nH]nc(NC(=O)[C@@H]4CCCNC4)c3c2)c1 [cpd 18, (3R)-N-[5-(2-Chloro-5-methoxyphenyl)-1H-indazol-3-yl]piperidine-3-carboxamide hydrochloride]",25
3,"CN(C)C1CC(C(=O)Nc2n[nH]c3ccc(-c4cc(C#N)ccc4Cl)cc23)C1 (centres unmarked) [compound 147, N-[5-(2-Chloro-5-cyanophenyl)-1H-indazol-3-yl]-3-(dimethylamino)cyclobutanecarboxamide hydrochloride]",108
4,"CC(C)OC(=O)c1ccc(Cl)c(-c2ccc3[nH]nc(NC(=O)[C@@H]4CCCNC4)c3c2)c1 [cpd 56, Propan-2-yl 4-chloro-3-(3-{[(3R)-piperidin-3-ylcarbonyl]amino}-1H-indazol-5-yl)benzoate hydrochloride]",100
5,"CN1CCC(C(=O)Nc2n[nH]c3ccc(-c4ccccc4)cc23)CC1 [cpd 93, 1-Methyl-N-(5-phenyl-1H-indazol-3-yl)piperidine-4-carboxamide hydrochloride]",938
6,"Nc1ccc(Cl)c(-c2ccc3[nH]nc(NC(=O)[C@@H]4CCCNC4)c3c2)c1 [cpd 34, (3R)-N-[5-(5-Amino-2-chlorophenyl)-1H-indazol-3-yl]piperidine-3-carboxamide dihydrochloride]",19
7,"COc1ccc(F)c(-c2ccc3[nH]nc(NC(=O)[C@@H]4CCCNC4)c3c2)c1 [cpd 20, (3R)-N-[5-(2-Fluoro-5-methoxyphenyl)-1H-indazol-3-yl]piperidine-3-carboxamide hydrochloride]",89
8,"CNC1CC(C(=O)Nc2n[nH]c3ccc(-c4ccc(O)cc4Cl)cc23)C1 (centres unmarked) [cpd 63, N-[5-(2-Chloro-4-hydroxyphenyl)-1H-indazol-3-yl]-3-(methylamino)cyclobutanecarboxamide hydrochloride]",48
9,"O=C(Nc1n[nH]c2ccc(-c3ccccc3)cc12)[C@@H]1CCCNC1 [cpd 49, (3R)-N-(5-Phenyl-1H-indazol-3-yl)piperidine-3-carboxamide hydrochloride]",78
10,"CCCCN1CCC(C(=O)Nc2n[nH]c3ccc(-c4c(F)cccc4Cl)cc23)CC1 [cpd 65, 1-Butyl-N-[5-(2-chloro-6-fluorophenyl)-1H-indazol-3-yl]piperidine-4-carboxamide hydrochloride]",110
11,"N#Cc1ccc(C#N)c(-c2ccc3[nH]nc(NC(=O)[C@@H]4CCCNC4)c3c2)c1 [cpd 53, (3R)-N-[5-(2,5-Dicyanophenyl)-1H-indazol-3-yl]piperidine-3-carboxamide hydrochloride]",30
12,"CN1CCC(C(=O)Nc2n[nH]c3ccc(-c4cc(F)c(F)cc4F)cc23)CC1 [compound 126, 1-Methyl-N-[5-(2,4,5-trifluorophenyl)-1H-indazol-3-yl]piperidine-4-carboxamide hydrochloride]",913
13,"Cc1ccc(-c2ccc3[nH]nc(NC(=O)[C@@H]4CCCNC4)c3c2)c(C(F)(F)F)c1 [cpd 36, (3R)-N-{5-[4-Methyl-2-(trifluoromethyl)phenyl]-1H-indazol-3-yl}piperidine-3-carboxamide hydrochloride]",65
14,"CN1CCC(C(=O)Nc2n[nH]c3ccc(-c4cccc(F)c4F)cc23)CC1 [cpd 99, N-[5-(2,3-Difluorophenyl)-1H-indazol-3-yl]-1-methylpiperidine-4-carboxamide hydrochloride]",173
15,"CN1CCC(C(=O)Nc2n[nH]c3ccc(-c4cc(C(F)(F)F)ccc4Cl)cc23)CC1 [cpd 94, N-{5-[2-Chloro-5-(trifluoromethyl)phenyl]-1H-indazol-3-yl}-1-methylpiperidine-4-carboxamide hydrochloride]",592
16,"CN1CCC(C(=O)Nc2n[nH]c3ccc(-c4ccc(S(N)(=O)=O)cc4)cc23)CC1 [cpd 92, 1-Methyl-N-[5-(4-sulfamoylphenyl)-1H-indazol-3-yl]piperidine-4-carboxamide hydrochloride]",799
17,"CNC1CCC(C(=O)Nc2n[nH]c3ccc(-c4c(Cl)cccc4Cl)cc23)CC1 (centres unmarked) [compound 144, N-[5-(2,6-Dichlorophenyl)-1H-indazol-3-yl]-4-(methylamino)cyclohexanecarboxamide hydrochloride]",110
18,"CNC(=O)c1ccc(C#N)c(-c2ccc3[nH]nc(NC(=O)[C@@H]4CCCNC4)c3c2)c1 [cpd 55, (3R)-N-{5-[2-Cyano-5-(methylcarbamoyl)phenyl]-1H-indazol-3-yl}piperidine-3-carboxamide hydrochloride]",90

row,SMILES,DC50 [nM]
1,"CN1CCC(C(=O)Nc2n[nH]c3ccc(-c4c(F)cc(F)cc4F)cc23)CC1 [compound 123, 1-Methyl-N-[5-(2,4,6-trifluorophenyl)-1H-indazol-3-yl]piperidine-4-carboxamide hydrochloride]",665
2,"COC(=O)c1cc(-c2ccc3[nH]nc(NC(=O)[C@@H]4CCCNC4)c3c2)c(Cl)cc1Cl [cpd 42, Methyl 2,4-dichloro-5-(3-{[(3R)-piperidin-3-ylcarbonyl]amino}-1H-indazol-5-yl)benzoate hydrochloride]",57
3,"O=C(Nc1n[nH]c2ccc(-c3c(Cl)cccc3Cl)cc12)[C@H]1CCCNC1 [compound 170, (3S)-N-[5-(2,6-Dichlorophenyl)-1H-indazol-3-yl]piperidine-3-carboxamide hydrochloride]",177
4,"N#Cc1ccc(Cl)c(-c2ccc3[nH]nc(NC(=O)[C@H]4CCC5(CCCC5)NC4)c3c2)c1 (single isomer, unassigned) [compound 205, (8-)-N-[5-(2-Chloro-5-cyanophenyl)-1H-indazol-3-yl]-6-azaspiro[4.5]decane-8-carboxamide hydrochloride]",278
5,"O=C(Nc1n[nH]c2ccc(OCCF)cc12)[C@@H]1CCCNC1 [cpd 227, (3R)-N-[5-(2-Fluoroethoxy)-1H-indazol-3-yl]piperidine-3-carboxamide hydrochloride]",71
6,"CCCN1CCC(C(=O)Nc2n[nH]c3ccc(-c4cc(C#N)ccc4Cl)cc23)CC1 [compound 141, N-[5-(2-Chloro-5-cyanophenyl)-1H-indazol-3-yl]-1-propylpiperidine-4-carboxamide hydrochloride]",79
7,"N#Cc1ccc(Cl)c(-c2ccc3[nH]nc(NC(=O)C4CCCCNC4)c3c2)c1 (centres unmarked) [compound 183, N-[5-(2-Chloro-5-cyanophenyl)-1H-indazol-3-yl]azepane-3-carboxamide hydrochloride]",73
8,"CC(C)NC1CC(C(=O)Nc2n[nH]c3ccc(-c4cc(C#N)ccc4Cl)cc23)C1 (centres unmarked) [compound 148, N-[5-(2-Chloro-5-cyanophenyl)-1H-indazol-3-yl]-3-(propan-2-ylamino)cyclobutanecarboxamide hydrochloride]",20
9,"COC(=O)c1cc(-c2ccc3[nH]nc(NC(=O)[C@@H]4CCCNC4)c3c2)c(F)cc1F [cpd 50, Methyl 2,4-difluoro-5-(3-{[(3R)-piperidin-3-ylcarbonyl]amino}-1H-indazol-5-yl)benzoate hydrochloride]",164
10,"CN1CCC(C(=O)Nc2n[nH]c3ccc(-c4cc(Cl)ccc4Cl)cc23)CC1 [cpd 80, N-[5-(2,5-Dichlorophenyl)-1H-indazol-3-yl]-1-methylpiperidine-4-carboxamide hydrochloride]",216
11,"COCC(C)N1CCC(C(=O)Nc2n[nH]c3ccc(-c4c(F)cccc4Cl)cc23)CC1 (centres unmarked) [cpd 67, N-[5-(2-Chloro-6-fluorophenyl)-1H-indazol-3-yl]-1-(1-methoxypropan-2-yl)piperidine-4-carboxamide hydrochloride]",151
12,"CCCCN1CCC(C(=O)Nc2n[nH]c3ccc(-c4cc(C#N)ccc4Cl)cc23)CC1 [compound 140, 1-Butyl-N-[5-(2-chloro-5-cyanophenyl)-1H-indazol-3-yl]piperidine-4-carboxamide hydrochloride]",68
13,"CN1CCC(C(=O)Nc2n[nH]c3ccc(-c4cc(C(N)=O)ccc4Cl)cc23)CC1 [cpd 117, N-[5-(5-Carbamoyl-2-chlorophenyl)-1H-indazol-3-yl]-1-methylpiperidine-4-carboxamide trifluoroacetate]",153
14,"NC[C@H]1CC[C@H](C(=O)Nc2n[nH]c3ccc(-c4c(Cl)cccc4Cl)cc23)CC1 [compound 164, trans-4-(Aminomethyl)-N-[5-(2,6-dichlorophenyl)-1H-indazol-3-yl]cyclohexanecarboxamide hydrochloride]",151
15,"O=C(Nc1n[nH]c2ccc(-c3ccc(Cl)cc3Cl)cc12)[C@@H]1CCCNC1 [cpd 14, (3R)-N-[5-(2,4-Dichlorophenyl)-1H-indazol-3-yl]piperidine-3-carboxamide hydrochloride]",87
16,"Nc1cccc(-c2ccc3[nH]nc(NC(=O)C4CCCNC4)c3c2)c1F (centres unmarked) [cpd 11, N-[5-(3-Amino-2-fluorophenyl)-1H-indazol-3-yl]piperidine-3-carboxamide hydrochloride]",183
17,"COCCOc1ccc2[nH]nc(NC(=O)[C@@H]3CCCNC3)c2c1 [cpd 228, (3R)-N-[5-(2-Methoxyethoxy)-1H-indazol-3-yl]piperidine-3-carboxamide hydrochloride]",406
